# From patent US6855843B2, “Inhibitors of α4 mediated cell adhesion” (Tanabe Seiyaku Co., Ltd., priority 1998, dated 2005)
# Where a name gives a salt, the structure may show the parent alone.
# Target: T1, α4β7 (adhesion of RPMI cells to CS-1) (Homo sapiens, UniProt P13612+P26010)
# T1 construct: endogenous in cells
# T1 sequence (P13612 34-1032): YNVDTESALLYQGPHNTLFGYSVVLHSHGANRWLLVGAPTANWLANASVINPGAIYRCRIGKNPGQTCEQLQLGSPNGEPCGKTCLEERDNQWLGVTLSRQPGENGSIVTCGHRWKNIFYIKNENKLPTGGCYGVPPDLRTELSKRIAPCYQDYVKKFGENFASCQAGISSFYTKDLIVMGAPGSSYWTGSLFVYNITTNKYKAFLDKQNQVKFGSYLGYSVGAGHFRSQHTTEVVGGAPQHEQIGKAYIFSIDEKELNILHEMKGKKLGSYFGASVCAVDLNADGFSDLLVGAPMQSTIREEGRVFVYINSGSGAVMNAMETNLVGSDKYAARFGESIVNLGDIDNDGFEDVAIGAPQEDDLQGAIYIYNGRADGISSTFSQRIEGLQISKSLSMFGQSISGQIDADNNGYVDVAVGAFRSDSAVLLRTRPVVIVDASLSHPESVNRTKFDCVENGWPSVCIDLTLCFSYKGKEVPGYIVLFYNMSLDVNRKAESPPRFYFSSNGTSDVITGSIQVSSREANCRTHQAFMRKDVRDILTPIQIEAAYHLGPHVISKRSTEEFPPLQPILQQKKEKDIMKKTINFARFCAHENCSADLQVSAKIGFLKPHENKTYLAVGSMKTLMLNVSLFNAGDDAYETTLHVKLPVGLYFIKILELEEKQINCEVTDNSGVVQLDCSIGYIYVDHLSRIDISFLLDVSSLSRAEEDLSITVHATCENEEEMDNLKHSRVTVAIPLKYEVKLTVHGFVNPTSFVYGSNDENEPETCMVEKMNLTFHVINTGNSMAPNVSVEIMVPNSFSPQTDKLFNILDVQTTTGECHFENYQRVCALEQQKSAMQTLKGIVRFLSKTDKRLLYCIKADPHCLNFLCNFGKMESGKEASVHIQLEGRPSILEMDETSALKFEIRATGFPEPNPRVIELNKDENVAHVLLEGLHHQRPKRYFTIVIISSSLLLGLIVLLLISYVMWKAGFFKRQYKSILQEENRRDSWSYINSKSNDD
# T1 sequence (P26010 20-798): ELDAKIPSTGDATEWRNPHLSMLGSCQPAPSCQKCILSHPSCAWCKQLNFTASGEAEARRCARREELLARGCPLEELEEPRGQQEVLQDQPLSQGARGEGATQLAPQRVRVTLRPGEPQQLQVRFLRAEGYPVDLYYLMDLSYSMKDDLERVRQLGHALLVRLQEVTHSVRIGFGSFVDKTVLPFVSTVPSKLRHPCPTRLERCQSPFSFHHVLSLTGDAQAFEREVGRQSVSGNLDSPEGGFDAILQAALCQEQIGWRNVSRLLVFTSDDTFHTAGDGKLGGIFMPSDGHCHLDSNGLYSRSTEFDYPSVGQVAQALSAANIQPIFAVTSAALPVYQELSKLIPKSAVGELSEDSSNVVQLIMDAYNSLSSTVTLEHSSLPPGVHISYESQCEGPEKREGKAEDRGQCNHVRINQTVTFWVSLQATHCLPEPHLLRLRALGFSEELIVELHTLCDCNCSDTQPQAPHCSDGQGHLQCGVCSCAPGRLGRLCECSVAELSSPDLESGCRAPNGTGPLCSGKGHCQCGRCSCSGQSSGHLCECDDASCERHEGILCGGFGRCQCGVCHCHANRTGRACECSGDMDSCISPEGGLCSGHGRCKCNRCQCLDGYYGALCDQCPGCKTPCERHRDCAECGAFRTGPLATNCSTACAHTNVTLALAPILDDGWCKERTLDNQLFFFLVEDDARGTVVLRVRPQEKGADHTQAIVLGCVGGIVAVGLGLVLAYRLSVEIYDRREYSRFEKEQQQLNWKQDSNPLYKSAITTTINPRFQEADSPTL
# Experiment: RPMI-CS-1 cell adhesion assay
# Assay type: cell-based
# Settings: adhesion of RPMI B-cell line (expresses α4β7) to CS-1 peptide coated microwells; read-out: RPMI-CS-1 IC50 value range
row,SMILES,IC50
1,"CCOc1ccc2c(c1-c1ccc(C[C@H](NC(=O)c3c(Cl)cccc3Cl)C(=O)O)cc1)OCO2 [Example 237, N-(2,6-Dichlorobenzoyl)-4-(2,3-methylenedioxy-6-ethoxyphenyl)-L-phenylalanine]",< 300 nM
2,"O=C(N[C@@H](Cc1ccc(-c2c(OCCO)ccc3c2OCO3)cc1)C(=O)O)c1c(Cl)cccc1Cl [Example 238, N-(2,6-Dichlorobenzoyl)-4-[2,3-methylenedioxy-6-(2-hydroxyethoxy)phenyl]-L-phenylalanine]",< 300 nM
3,"N#CCOc1ccc2c(c1-c1ccc(C[C@H](NC(=O)c3c(Cl)cccc3Cl)C(=O)O)cc1)OCO2 [Example 239, N-(2,6-Dichlorobenzoyl)-4-[2,3-methylenedioxy-6-(cyanomethoxy)phenyl]-L-phenylalanine]",< 300 nM
4,"COc1ccc2c(c1-c1ccc(C[C@H](NC(=O)c3c(Cl)cccc3Cl)C(=O)O)cc1)OCO2 [Example 240, N-(2,6-Dichlorobenzoyl)-4-(2,3-methylenedioxy-6-methoxyphenyl)-L-phenylalanine]",< 300 nM
5,COc1cc(CN2CCC3(CC2)OCCO3)cc(OC)c1-c1ccc(C[C@H](NC(=O)c2c(Cl)cccc2Cl)C(=O)O)cc1 [Example 244],< 300 nM
6,COc1cc(CN2CCN(CCO)CC2)cc(OC)c1-c1ccc(C[C@H](NC(=O)c2c(Cl)cccc2Cl)C(=O)O)cc1 [Example 250],< 300 nM
7,COc1cc(CN2CCN(C(C)=O)CC2)cc(OC)c1-c1ccc(C[C@H](NC(=O)c2c(Cl)cccc2Cl)C(=O)O)cc1 [Example 251],< 300 nM
8,CCCN1CCN(Cc2cc(OC)c(-c3ccc(C[C@H](NC(=O)c4c(Cl)cccc4Cl)C(=O)O)cc3)c(OC)c2)CC1 [Example 252],< 300 nM
9,"COc1cc(CN2CCCCC2)cc(OC)c1-c1ccc(C[C@H](NC(=O)c2c(Cl)cccc2Cl)C(=O)O)cc1 [Example 256, N-(2,6-Dichlorobenzoyl)-4-[2,6-dimethoxy-4-(piperidinomethyl)phenyl]-L-phenylalanine]",< 300 nM
10,"COc1cc(CN2CCN(Cc3ccccc3)CC2)cc(OC)c1-c1ccc(C[C@H](NC(=O)c2c(Cl)cccc2Cl)C(=O)O)cc1 [Example 258, N-(2,6-Dichlorobenzoyl)-4-[2,6-dimethoxy-4-[(4-benzyl-1-piperazinyl)methyl]phenyl]-L-phenylalanine]",< 300 nM
11,"COc1cc(CN2CCNCC2)cc(OC)c1-c1ccc(C[C@H](NC(=O)c2c(Cl)cccc2Cl)C(=O)O)cc1 [Example 262, N-(2,6-Dichlorobenzoyl)-4-[2,6-dimethoxy-4-[(1-piperazinyl)methyl]phenyl]-L-phenylalanine]",< 300 nM

# Further lines, results first:
row,IC50,SMILES
1,< 300 nM,COc1cc(CN2CCCC2)cc(OC)c1-c1ccc(C[C@H](NC(=O)c2c(Cl)cccc2Cl)C(=O)O)cc1 [Example 243]
2,< 300 nM,COc1cc(CN2CC(C)OC(C)C2)cc(OC)c1-c1ccc(C[C@H](NC(=O)c2c(Cl)cccc2Cl)C(=O)O)cc1 (stereo partly drawn) [Example 245]
3,< 300 nM,COc1cc(CNCCO)cc(OC)c1-c1ccc(C[C@H](NC(=O)c2c(Cl)cccc2Cl)C(=O)O)cc1 [Example 246]
4,< 300 nM,COc1cc(CN(C)CCN(C)C)cc(OC)c1-c1ccc(C[C@H](NC(=O)c2c(Cl)cccc2Cl)C(=O)O)cc1 [Example 247]
5,< 300 nM,COc1cc(CN2CCN(C)CC2)cc(OC)c1-c1ccc(C[C@H](NC(=O)c2c(Cl)cccc2Cl)C(=O)O)cc1 [Example 248]
6,< 300 nM,"COc1cc(CN(C)C)cc(OC)c1-c1ccc(C[C@H](NC(=O)c2c(Cl)cccc2Cl)C(=O)O)cc1 [Example 255, N-(2,6-Dichlorobenzoyl)-4-[2,6-dimethoxy-4-[(N,N-dimethylamino)methyl]phenyl]-L-phenylalanine]"
7,< 300 nM,"CCOC(=O)[C@H](Cc1ccc(-c2c(OC)cc(CN(C)C)cc2OC)cc1)NC(=O)c1c(Cl)cccc1Cl [Example 259, N-(2,6-Dichlorobenzoyl)-4-[2,6-dimethoxy-4-[(N,N-dimethylamino)methyl]phenyl]-L-phenylalanine ethyl ester hydrochloride]"
